Measurements reported in patent US9340549B2, “Oxazolidinone compounds and derivatives thereof” (priority 2012, dated 2016).
Where two headings read alike, the source gives them in different places.

Assays:
[1] = system: total β-catenin in SW480 colorectal cells; assay: cells; assay type: cell-based
Protocol: Total β-Catenin MSD 96-Well Plate Assay for SW480 Cells
SW480 colorectal cells were seeded at a density of 10,000/well in CellBIND 96-well plates (Corning catalog no. 3300) in 60 μL of normal growth medium (MEM alpha supplemented with 10% heat inactivated FBS, GlutaMAX, pyruvate, and 10 mM HEPES).
A 10-point, 3-fold dilution series for each TNKS inhibitor was constructed in a 96-well “stock” plate. […] The plates were incubated at 37° C. for 40 to 48 hours. The media was removed from the CellBIND plate via plate inversion and gentle shaking and the inverted plate was touched to a paper towel and immediately placed on ice. […] Plates containing cell lysates were sealed and shaken for one hour at 4° C. and then quickly frozen in a −80° C. for approximately 15 to 30 minutes followed by gradually thawing at 4° C. Finally, lysate containing plates were centrifuged @1000×g (2073 rpm) for 10 minutes at 4° C.
The sealed MSD plate was incubated overnight in a cold room with gentle shaking. The MSD plate was then blocked with 150 μL of Blocker “A” per well and incubated overnight at 4° C. with vigorous shaking. The blocked MSD plate was washed 4 times with 150 μL/well TBS-T wash buffer (150 mM NaCl, 50 mM Tris, pH 7.5, 0.02% Tween-20). Cell lysates (75 μL) were transferred to prepared MSD plates and incubated at 4° C. ON with gentle shaking. […] The detection antibody was incubated for 1 hour at room temperature with vigorous shaking after which plates were washed 3 times with 150 μL/well TBS-T wash buffer. Plates were processed for analysis by the addition of 150 μL/well MSD Read 4× Buffer T with surfactant (catalog no. R92TC-2; diluted 1:3 in deionized water) and were read on the SECTOR Imager 6000.

[2] = target: 6×HIS-tankyrase 1 (1091-1325) (Homo sapiens (Human), UniProt O95271); assay: biochemical; assay type: biochemical; details: 400 nM NAD, 60 minutes at room temperature, read-out: TNKS1 IP IC50
[3] = Homo sapiens, SW480 cells, 40 to 48 hours, top concentration 10 μM, read-out: SW480-Total β-Catenin IC50 IP

6×HIS-tankyrase 1 (1091-1325), sequence (O95271 1091-1325): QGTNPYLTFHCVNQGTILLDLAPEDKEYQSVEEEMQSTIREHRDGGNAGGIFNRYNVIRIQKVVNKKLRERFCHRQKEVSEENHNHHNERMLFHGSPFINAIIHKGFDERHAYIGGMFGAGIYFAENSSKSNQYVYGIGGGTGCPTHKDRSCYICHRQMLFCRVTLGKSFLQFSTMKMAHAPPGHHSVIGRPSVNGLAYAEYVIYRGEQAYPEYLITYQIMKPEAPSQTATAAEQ

Row | Compound | IC50 [1, 3] [nM] | IC50 ([2]; 0.25 nM enzyme) [nM] | IC50 ([2]; […] enzyme) [nM] | IC50 ([1]; SW480 cells, 40 to 48 hours, top concentration 10 μM, read-out: SW480-Total β-Catenin IC50 IP) [nM] | IC50 ([1]; Homo sapiens, SW480, read-out: SW480-Total β-Catenin IC50 IP) [nM]
1 | CC1(C)OC(=O)N(c2ccc(C(=O)Nc3cccc4cccnc34)cc2)C1c1ccncc1 (racemic) [Example 124, (+/−)-(R/S)-4-(5,5-dimethyl-2-oxo-4-(pyridin-4-yl)oxazolidin-3-yl)-N-(quinolin-8-yl)benzamide] | 1500 | 767 |  |  | 
2 | CC1(C)OC(=O)N(c2ccc(C(=O)Nc3cccc4cccnc34)cc2)C1c1ccccn1 (racemic) [Example 121, (+/−)-(R/S)-4-(5,5-dimethyl-2-oxo-4-(pyridin-2-yl)oxazolidin-3-yl)-N-(quinolin-8-yl)benzamide] | 5640 | 310 |  |  | 
3 | CC1(C)OC(=O)N([C@H]2CC[C@H](n3c(=O)[nH]c4c(F)cc(F)cc43)CC2)[C@H]1c1ccccc1 [Example 104, (S)-3-((1r,4S)-4-(4,6-difluoro-2-oxo-2,3-dihydro-1H-benzo[d]imidazol-1-yl)cyclohexyl)-5,5-dimethyl-4-phenyloxazolidin-2-one] | > 10000 |  | 93 |  | 
4 | CC1(C)OC(=O)N([C@H]2CC[C@H](n3c(=O)[nH]c4cc(C#N)c(F)cc43)CC2)[C@H]1c1ccccc1 [Example 103, 1-((1S,4r)-4-((S)-5,5-dimethyl-2-oxo-4-phenyloxazolidin-3-yl)cyclohexyl)-6-fluoro-2-oxo-2,3-dihydro-1H-benzo[d]imidazole-5-carbonitrile] | 67.2 |  |  |  | 
5 | (S)-3-(4-(6-amino-5-(5-chloropyridazin-3-yl)pyridin-3-yl)phenyl)-5,5-dimethyl-4-phenyloxazolidin-2-one [Example 100] |  |  | 220 | 3380 | 
6 | CC1(C)OC(=O)N(c2ccc(-n3c(=O)[nH]c4ccccc43)cc2)[C@H]1c1ccccc1 [Example 19, (S)-5,5-dimethyl-3-(4-(2-oxo-2,3-dihydro-1H-benzo[d]imidazol-1-yl)phenyl)-4-phenyloxazolidin-2-one] | 8630 |  | 863 |  | 
7 | Cc1cc(N2C(=O)OC(C)(C)[C@@H]2c2ccccc2)ccc1C(=O)Nc1ccnc2cccnc12 [Example 128, (S)-4-(5,5-dimethyl-2-oxo-4-phenyloxazolidin-3-yl)-2-methyl-N-(1,5-naphthyridin-4-yl)benzamide] | 4350 |  | 693 |  | 
8 | CC1(C)OC(=O)N([C@@H]2CC=C(c3cnc4ccn(-c5ncccn5)c4c3)CC2)[C@H]1c1ccccc1 (mixture of isomers) [Example 173, Mixture of (S)-5,5-dimethyl-4-phenyl-3-((S)-4-(1-(pyrimidin-2-yl)-1H-pyrrolo[3,2-b]pyridin-6-yl)cyclohex-3-en-1-yl)oxazolidin-2-one and (S)-5,5-dimethyl-4-phenyl-3-((R)-4-(1-(pyrimidin-2-yl)-1H-pyrrolo[3,2-b]pyridin-6-yl)cyclohex-3-en-1-yl)oxazolidin-2-one] | 1120 |  | 9.26 |  | 
9 | CC1(C)OC(=O)N(C2CCN(c3cnc4ccn(-c5ncccn5)c4c3)CC2)[C@H]1c1ccccc1 [Example 140, (S)-5,5-dimethyl-4-phenyl-3-(1-(1-(pyrimidin-2-yl)-1H-pyrrolo[3,2-b]pyridin-6-yl)piperidin-4-yl)oxazolidin-2-one] | 1830 |  | 24.3 |  | 
10 | CC1(C)OC(=O)N([C@H]2CC[C@H](n3c(=O)n(CC(F)F)c4cnccc43)CC2)[C@H]1c1ccccc1 [Example 39, (S)-3-((1r,4S)-4-(3-(2,2-difluoroethyl)-2-oxo-2,3-dihydro-1H-imidazo[4,5-c]pyridin-1-yl)cyclohexyl)-5,5-dimethyl-4-phenyloxazolidin-2-one] | 6750 |  |  |  | 
11 | CC1(C)OC(=O)N(c2ccc(C(=O)Nc3cccc4cccnc34)cc2)[C@@H]1c1ccccn1 [Example 122, (R)-4-(5,5-dimethyl-2-oxo-4-(pyridin-2-yl)oxazolidin-3-yl)-N-(quinolin-8-yl)benzamide] | 8560 |  | 1530 |  | 
12 | CC1(C)OC(=O)N([C@@H]2CC=C(c3cnc4cc[nH]c4c3)CC2)[C@H]1c1ccccc1 (mixture of isomers) [Example 169, mixture of (S)-3-((S)-4-(1H-pyrrolo[3,2-b]pyridin-6-yl)cyclohex-3-en-1-yl)-5,5-dimethyl-4-phenyloxazolidin-2-one and (S)-3-((R)-4-(1H-pyrrolo[3,2-b]pyridin-6-yl)cyclohex-3-en-1-yl)-5,5-dimethyl-4-phenyloxazolidin-2-one] | 3180 |  | 88.6 |  | 
13 | CC1(C)OC(=O)N(c2ccc(-c3cc(-c4ccccn4)cnc3F)cc2)[C@H]1c1ccccc1 [Example 114, (S)-3-(4-(6′-fluoro-[2,3′-bipyridin]-5′-yl)phenyl)-5,5-dimethyl-4-phenyloxazolidin-2-one] | 1780 |  | 447 |  | 
14 | CC1(C)OC(=O)N(c2ccc(C(=O)Nc3cccc4cccnc34)cc2)C1c1cccc(F)c1 (racemic) [Example 108, (+/−)-(R/S)-4-(4-(3-fluorophenyl)-5,5-dimethyl-2-oxooxazolidin-3-yl)-N-(quinolin-8-yl)benzamide] | > 10000 | 551 |  |  | 
15 | CC1(C)OC(=O)N(c2ccc(C(=O)Nc3nccc4cccnc34)cc2)[C@H]1c1ccccc1 [Example 20, (S)-4-(5,5-dimethyl-2-oxo-4-phenyloxazolidin-3-yl)-N-(1,7-naphthyridin-8-yl)benzamide] | 5330 |  | 1480 |  | 
16 | CC1(C)OC(=O)N(c2ccc(C(=O)Nc3cccc4cccnc34)cc2)[C@H]1c1ccccn1 [Example 123, (S)-4-(5,5-dimethyl-2-oxo-4-(pyridin-2-yl)oxazolidin-3-yl)-N-(quinolin-8-yl)benzamide] | 3440 |  | 228 |  | 
17 | C[C@@]1(c2ccccc2)CN([C@H]2CC[C@@H](n3c(=O)[nH]c4cc(C#N)ccc43)CC2)C(=O)O1 (stereo in doubt) [Example 93, 1-((1R,4r)-4-((R)-5-methyl-2-oxo-5-phenyloxazolidin-3-yl)cyclohexyl)-2-oxo-2,3-dihydro-1H-benzo[d]imidazole-5-carbonitrile] | 125 |  | 3 |  | 
18 | CC1(C)OC(=O)N(c2ccc(-c3cnc(N)c(-c4nccc(C#N)n4)c3)cc2)[C@H]1c1ccccc1 [Example 102, (S)-2-(2-amino-5-(4-(5,5-dimethyl-2-oxo-4-phenyloxazolidin-3-yl)phenyl)pyridin-3-yl)pyrimidine-4-carbonitrile] | > 10000 |  | 920 |  | 
19 | CC1(C)OC(=O)N(c2ccc(-c3cnc(N)c(-c4nccc(C(=N)N)n4)c3)cc2)[C@H]1c1ccccc1 [Example 99, (S)-2-(2-amino-5-(4-(5,5-dimethyl-2-oxo-4-phenyloxazolidin-3-yl)phenyl)pyridin-3-yl)pyrimidine-4-carboximidamide] |  | 14.3 |  |  | 620
20 | CC1(C)OC(=O)N([C@H]2CC[C@H](n3c(=O)[nH]c4cccnc43)CC2)[C@@H]1c1ccccc1 [Example 38, (R)-5,5-dimethyl-3-((1r,4R)-4-(2-oxo-1H-imidazo[4,5-b]pyridin-3(2H)-yl)cyclohexyl)-4-phenyloxazolidin-2-one] | 4740 |  |  |  | 
21 | CC1(C)OC(=O)N([C@H]2CC[C@H](c3nnc(-c4ccccc4)o3)CC2)[C@H]1c1ccccc1 [Example 85, (S)-5,5-dimethyl-4-phenyl-3-((1r,4S)-4-(5-phenyl-1,3,4-oxadiazol-2-yl)cyclohexyl)oxazolidin-2-one] | 2410 |  | 45.2 |  | 
22 | C[C@]1(c2ccccc2)CN([C@H]2CC[C@H](n3c(=O)[nH]c4cc(C#N)ccc43)CC2)C(=O)O1 (single isomer, unassigned) [Example 94] | 3010 |  | 270 |  | 
